Data reported in patent US6897316B2, “Substituted 2-phenyl-4-quinolone-3-carboxylic acid compounds and their use as antitumor agents” (China Medical University, priority 2003, dated 2005).
≈ marks a conversion by molar mass, not a printed value.

How the values were obtained:
[1] = test system: lung cancer cell line (A-549); assay: Preliminary cytotoxicity screening against lung cancer cell line A-549 (SRB assay); type: cell-based, human; details: for ED50 (cytotoxicity against A-549): 50% reduction in absorbance at 562 nm, Table 2 (tromethamine salts X); for ED50 (cytotoxicity against A-549) / IC50: SRB assay, A-549; for IC50: Homo sapiens, A549, 50% reduction in absorbance at 562 nm relative to untreated cells, Table 1 (esters VII, acids IX), read-out: ED50 (cytotoxicity against A-549)
Experimental: (§1) Compounds were assayed for in vitro cytotoxicity in a panel of human tumor cell lines at the School of Pharmacy, University of North Carolina at Chapel Hill, according to procedures described previously [Lee, K. H., Lin, Y. M., Wu, T. S., Zhang, D. C., Yamagishi, T., Hayashi, T., Hall, I. H., Chang, J. J., Wu, R. Y., Yang, T. H. The cytotoxic principles of Prunella vulgaris, Psychotria serpens, and Hyptis capitata: Ursolic acid and related derivatives. Planta Med. 1988, 54, 308-11; Boyd, M. R. Status of the National Cancer Institute preclinical antitumor drug discovery screen: implications for selection of new agents for clinical trial. Devita, V. T., Jr. Hellman, S., Rosenberg, S. A., Eds, J. B. Cancer: Principles and Practice of Oncology Update, 1989, 3: pp1-12, Lippincoft: Philadephia; Monks, A., Scudiero, D., Skehan, P., Shoemaker, R., Paull, K., Vistica, D., Hose, C., Langley, J., Cronise, P., Vaigro-Wolff, A., Gray-Goodrich, M., Campbell, H., Mayo, J., Boyd, M. Feasibility of a high-flux anticancer drug screen using a diverse panel of cultured human tumor cell lines. J. Natl. Cancer Inst. 1991, 83, 757-66.] The cell lines included human ovarian cancer (1A9), ileocecal carcinoma (HCT-8), lung carcinoma (A-549), glioblastoma (U-87-MG), bone (HOS), epidermoid carcinoma of the naynx (KB), P-gp-expressing epidermoid carcinoma of the nasopharynx (KB-VIN), and melanoma (SKMEL-2) cell line. The cytotoxic effects of each compound were obtained as EC50 values, which represent the molar drug concentrations required to cause 50% inhibition.
Preliminary screening of antitumor activity was based on the cytotoxicity tested in human long cancer (A-549) cell lines. […] Among 3-carboxylic acid derivatives (IX), the cytotoxicity was not remarkable when the m-position of 2-phenyl group was substituted by OCH3 group (IX-3, 7, 11). ED50 values were greater than 20 μg/mL. […] The antitumor activity was not good, if there was no substitution on the m-position of 2-phenyl group ([…]).

[2] = test system: bone (HOS) cell line; assay: Activity against HTCL replication, HOS; type: cell-based, human; details: mean ED50
Experimental: as §1, with “The cell lines included human ovarian cancer (1A9), ileocecal carcinoma (HCT-8), lung carcinoma (A-549), glioblastoma (U-87-MG), bone (HOS), epidermoid carcinoma of the naynx (KB), P-gp-expressing epidermoid carcinoma of the nasopharynx (KB-VIN), and melanoma (SKMEL-2) cell line. The cytotoxic effects of each compound were obtained as EC50 values, which represent the molar drug concentrations required to cause 50% inhibition.” left out

[3] = test system: melanoma (SK-MEL-2) cell line; assay: Activity against HTCL replication, SK-MEL-2; type: cell-based, human; details: mean ED50
Experimental: as §1, with “The cell lines included human ovarian cancer (1A9), ileocecal carcinoma (HCT-8), lung carcinoma (A-549), glioblastoma (U-87-MG), bone (HOS), epidermoid carcinoma of the naynx (KB), P-gp-expressing epidermoid carcinoma of the nasopharynx (KB-VIN), and melanoma (SKMEL-2) cell line. The cytotoxic effects of each compound were obtained as EC50 values, which represent the molar drug concentrations required to cause 50% inhibition.” left out

[4] = test system: glioblastoma (U87-MG) cell line; assay: Activity against HTCL replication, U87-MG; type: cell-based, human; details: mean ED50
Experimental: as §1, with “The cell lines included human ovarian cancer (1A9), ileocecal carcinoma (HCT-8), lung carcinoma (A-549), glioblastoma (U-87-MG), bone (HOS), epidermoid carcinoma of the naynx (KB), P-gp-expressing epidermoid carcinoma of the nasopharynx (KB-VIN), and melanoma (SKMEL-2) cell line. The cytotoxic effects of each compound were obtained as EC50 values, which represent the molar drug concentrations required to cause 50% inhibition.” left out

[5] = test system: ileocecal carcinoma (HCT-8) cell line; assay: Activity against HTCL replication, HCT-8; type: cell-based, human; details: mean ED50
Experimental: as §1, with “The cell lines included human ovarian cancer (1A9), ileocecal carcinoma (HCT-8), lung carcinoma (A-549), glioblastoma (U-87-MG), bone (HOS), epidermoid carcinoma of the naynx (KB), P-gp-expressing epidermoid carcinoma of the nasopharynx (KB-VIN), and melanoma (SKMEL-2) cell line. The cytotoxic effects of each compound were obtained as EC50 values, which represent the molar drug concentrations required to cause 50% inhibition.” left out

[6] = test system: human ovarian cancer (IA9) cell line; assay: Activity against HTCL replication, IA9; type: cell-based; details: ovarian cancer IA9; mean ED50
Experimental: as §1
Antitumor activity of compounds IX-8 and X-8 was further tested on the following 8 cancer cell lines: CAKI, HOS, KB, KB-VIN, SK-MEL-2, U87-MG, HCT-8 and IA9. […] It is worth mentioning that these two compounds were quite active against human ovarian cancer cells (IA9), which were known to have a high level of drug resistant P-glycoprotein. IC50 of compound IX-8 against these cancer cells is only 0.03 μg/mL. Thus, this compound is really worth developing, particular against drug resistant ovarian cancer.

Molecule | ED50 (cytotoxicity against A-549) [1] [µg/mL] | IC50 [1] [µg/mL] | melting point | also measured
6-Methoxy-2-phenyl-4-quinolone-3-carboxylic acid tromethamine salt [Compound X-11] | >20 |  |  | 
NC(CO)(CO)CO.O=C(O)c1c(-c2cccc(Cl)c2)[nH]c2ccc(F)cc2c1=O [Compound X-1, 3′-Chloro-6-fluoro-2-phenyl-4-quinolone-3-carboxylic acid tromethamine salt] | 17.6 |  |  | 
NC(CO)(CO)CO.O=C(O)c1c(-c2cccc(F)c2)[nH]c2ccc(F)cc2c1=O [Compound X-2, 3′,6-Difluoro-2-phenyl-4-quinolone-3-carboxylic acid tromethamine salt] | 4.3 |  |  | 
NC(CO)(CO)CO.O=C(O)c1c(-c2cccc(F)c2)[nH]c2ccc(Cl)cc2c1=O [Compound X-5, 3′-Fluoro-6-chloro-2-phenyl-4-quinolone-3-carboxylic acid tromethamine salt] | 10.9 |  |  | 
NC(CO)(CO)CO.O=C(O)c1c(-c2cccc(Cl)c2)[nH]c2ccc(Cl)cc2c1=O [Compound X-6, 3′,6-Dichloro-2-phenyl-4-quinolone-3-carboxylic acid tromethamine salt] | >20 |  |  | 
COc1cccc(-c2[nH]c3ccc(Cl)cc3c(=O)c2C(=O)O)c1.NC(CO)(CO)CO [Compound X-7, 3′-Methoxy-6-chloro-2-phenyl-4-quinolone-3-carboxylic acid tromethamine salt] | >20 |  |  | 
COc1ccc2[nH]c(-c3cccc(F)c3)c(C(=O)O)c(=O)c2c1.NC(CO)(CO)CO [Compound X-8, 3′-Fluoro-6-methoxy-2-phenyl-4-quinolone-3-carboxylic acid tromethamine salt] | 2.4 |  |  | ED50 HOS [2]: 5.0 µg/mL; ED50 SK-MEL-2 [3]: 2.0 µg/mL; ED50 U87-MG [4]: 5.0 µg/mL; ED50 HCT-8 [5]: 1.20 µg/mL; ED50 IA9 [6]: 0.88 µg/mL
COc1ccc2[nH]c(-c3cccc(Cl)c3)c(C(=O)O)c(=O)c2c1.NC(CO)(CO)CO [Compound X-9, 3′-Chloro-6-methoxy-2-phenyl-4-quinolone-3-carboxylic acid tromethamine salt] | 17.6 |  |  | 
O=C(O)c1c(-c2cccc(Cl)c2)[nH]c2ccc(F)cc2c1=O [IX-1, 3′-Chloro-6-fluoro-2-phenyl-4-quinolone-3-carboxylic acid] |  | 20 (≈ 63 µM) |  | 
O=C(O)c1c(-c2cccc(F)c2)[nH]c2ccc(F)cc2c1=O [IX-2, 3′,6-Difluoro-2-phenyl-4-quinolone-3-carboxylic acid] |  | 0.5 (≈ 1.66 µM) | 272 °C (dec.) | 
COc1cccc(-c2[nH]c3ccc(F)cc3c(=O)c2C(=O)O)c1 [IX-3, 6-Fluoro-3′-methoxy-2-phenyl-4-quinolone-3-carboxylic acid] |  | > 20 | 231 °C | 
O=C(O)C1C(=O)c2cc(F)ccc2N=C1c1ccccc1 (centres unmarked) [IX-4, 6-Fluoro-2-phenyl-4-quinolone-3-carboxylic acid] |  |  | 297 °C | 
O=C(O)c1c(-c2cccc(F)c2)[nH]c2ccc(Cl)cc2c1=O [IX-5, 3′-Fluoro-6-chloro-2-phenyl-4-quinolone-3-carboxylic acid] |  | 1.8 (≈ 5.67 µM) | > 300 °C | 
O=C(O)c1c(-c2cccc(Cl)c2)[nH]c2ccc(Cl)cc2c1=O [IX-6, 3′,6-Dichloro-2-phenyl-4-quinolone-3-carboxylic acid] |  | > 20 | 260 °C (dec.) | 
COc1cccc(-c2[nH]c3ccc(Cl)cc3c(=O)c2C(=O)O)c1 [IX-7, 3′-Methoxy-6-chloro-2-phenyl-4-quinolone-3-carboxylic acid] |  | > 20 | 243 °C (dec.) | 
COc1ccc2[nH]c(-c3cccc(Cl)c3)c(C(=O)O)c(=O)c2c1 [IX-9, 3′-Chloro-6-methoxy-2-phenyl-4-quinolone-3-carboxylic acid] |  | 20 (≈ 60.7 µM) | 223 °C (dec.) | 
COc1cccc(-c2[nH]c3ccc(OC)cc3c(=O)c2C(=O)O)c1 [IX-10, 3′,6-Dimethoxy-2-phenyl-4-quinolone-3-carboxylic acid] |  | > 20 | > 300 °C | 
COc1ccc2c(c1)C(=O)C(C(=O)O)C(c1ccccc1)=N2 (centres unmarked) [IX-11, 6-Methoxy-2-phenyl-4-quinolone-3-carboxylic acid] |  | > 20 | > 300 °C | cytotoxicity / antitumor activity in words ([1]; A-549, preliminary screening): not good
O=C(O)C1C(=O)c2cc(Cl)ccc2N=C1c1ccccc1 (centres unmarked) [IX-15, 6-Chloro-2-phenyl-4-quinolone-3-carboxylic acid] |  |  | 254.2 to 255.6 °C (dec.) | 
O=C(O)C1C(=O)c2cc3c(cc2N=C1c1ccccc1)OCO3 (centres unmarked) [IX-22, 6,7-Methylenedioxy-2-phenyl-4-quinolone-3-carboxylic acid] |  |  | 267.5 to 269.2 °C (dec.) | 
CCOC(=O)c1c(-c2cccc(F)c2)[nH]c2ccc(Cl)cc2c1=O [VII-5, Ethyl 3′-fluoro-6-chloro-2-phenyl-4-quinolone-3-carboxylate] |  | > 20 |  | 
CCOC(=O)c1c(-c2cccc(OC)c2)[nH]c2ccc(Cl)cc2c1=O [VII-7, Ethyl 3′-methoxy-6-chloro-2-phenyl-4-quinolone-3-carboxylate] |  | > 20 |  | 
CCOC(=O)c1c(-c2cccc(Cl)c2)[nH]c2ccc(OC)cc2c1=O [VII-9, Ethyl 3′-chloro-6-methoxy-2-phenyl-4-quinolone-3-carboxylate] |  | > 20 |  | 
CCOC(=O)c1c(-c2cccc(OC)c2)[nH]c2ccc(OC)cc2c1=O [VII-10, Ethyl 3′,6-dimethoxy-2-phenyl-4-quinolone-3-carboxylate] |  | > 20 |  | 
